Structures can show the parent of a compound that is named as a salt.
Molecular target: T1, human V1a receptor (Homo sapiens, UniProt P37288)
T1 construct: expressed in transfected cells; host or cells: HEK293 cells, transiently transfected; membranes prepared
Test: human V1a receptor binding (3H-Vasopressin SPA, HEK293 membranes)
Details: 3H-Vasopressin displacement, membranes of HEK293 cells transiently transfected with human V1a; Ki by Cheng-Prussoff; read-out: pKi (hV1a) (converted)
Procedure: The human V1a receptor was cloned by RT-PCR from total human liver RNA. The coding sequence was subcloned in an expression vector after sequencing to confirm the identity of the amplified sequence. […] Cell membranes were prepared from HEK293 cells transiently transfected with the expression vector and grown in 20 liter fermenters with the following protocol.
50 g of cells were resuspended in 30 ml freshly prepared ice cold Lysis buffer (50 mM HEPES, 1 mM EDTA, 10 mM MgCl2 adjusted to pH=7.4+complete cocktail of protease inhibitor (Roche Diagnostics)); homogenized with Polytron for 1 min, and sonicated on ice for 2×2 minutes at 80% intensity (Vibracell sonicator). The preparation was centrifuged 20 min at 500 g at 4° C., the pellet was discarded and the supernatant centrifuged 1 hour at 43,000 g at 4° C. (19,000 rpm). The pellet was resuspended in 12.5 ml Lysis buffer+12.5 ml Sucrose 20% and homogenized using a Polytron for 1-2 min. The protein concentration was determined by the Bradford method and aliquots were stored at −80° C. until use. For binding studies 60 mg Yttrium silicate SPA beads (Amersham) were mixed with an aliquot of membrane in binding buffer (50 mM Tris, 120 mM NaCl, 5 mM KCl, 2 mM CaCl2, 10 mM MgCl2) for 15 minutes with mixing. 50 ul of bead/membrane mixture was then added to each well of a 96 well plate, followed by 50 ul of 4 nM 3H-Vasopressin (American Radiolabeled Chemicals). For total binding measurement 100 ul of binding buffer were added to the respective wells, for non-specific binding 100 ul of 8.4 mM cold vasopressin and for compound testing 100 ul of a serial dilution of each compound in 2% DMSO. The plate was incubated 1 h at room temperature, centrifuged 1 min at 1000 g and counted on a Packard Top-Count. Non-specific binding counts wee subtracted from each well and data was normalized to the maximum specific binding set at 100%. To calculate an IC 50 the curve was fitted using a non-linear regression model (XLfit), and the Ki was calculated using the Cheng-Prussoff equation.

T1 sequence (P37288 whole entry): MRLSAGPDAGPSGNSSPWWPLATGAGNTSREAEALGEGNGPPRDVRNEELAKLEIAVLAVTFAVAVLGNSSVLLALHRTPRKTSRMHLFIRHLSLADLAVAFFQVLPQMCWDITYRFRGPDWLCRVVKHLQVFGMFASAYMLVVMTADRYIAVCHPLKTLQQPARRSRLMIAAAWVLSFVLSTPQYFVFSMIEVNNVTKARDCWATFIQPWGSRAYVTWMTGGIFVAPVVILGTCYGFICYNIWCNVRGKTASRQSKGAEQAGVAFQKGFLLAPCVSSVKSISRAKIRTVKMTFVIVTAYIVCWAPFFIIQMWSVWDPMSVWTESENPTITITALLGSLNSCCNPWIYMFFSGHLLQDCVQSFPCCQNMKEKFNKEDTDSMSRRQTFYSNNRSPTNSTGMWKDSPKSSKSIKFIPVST

| SMILES | Ki |
| --- | --- |
| O=C(c1cn(C[C@@H]2CCCN2)c2cc(Cl)ccc12)N1CCC2(CC1)OCc1ncccc12 [Compound 3, 1′-({6-Chloro-1-[(2S)-pyrrolidin-2-ylmethyl]-1H-indol-3-yl}carbonyl)-7H-spiro[furo[3,4-b]pyridine-5,4′-piperidine]dihydrochloride] | 25.1 nM |
| CN1CCC[C@H]1Cn1cc(C(=O)N2CCC3(CC2)OCc2ncccc23)c2ccc(Cl)cc21 [Compound 4, 1′-[(6-Chloro-1-{[(2S)-1-methylpyrrolidin-2-yl]methyl}-1H-indol-3-yl)carbonyl]-7H-spiro[furo[3,4-b]pyridine-5,4′-piperidine]] | 1.55 nM |
| O=C(c1cn(Cc2cc(F)cc(F)c2)c2cc(Cl)ccc12)N1CCC2(CC1)OCc1ncccc12 [Compound 5, 1′-{[6-Chloro-1-(3,5-difluorobenzyl)-1H-indol-3-yl]carbonyl}-7H-spiro[furo[3,4-b]pyridine-5,4′-piperidine]] | 4.37 nM |
| O=C(c1c[nH]c2cc(Cl)ccc12)N1CCC2(CC1)OCc1cccnc12 [Compound 6, 1′-[(6-Chloro-1H-indol-3-yl)carbonyl]-5H-spiro[furo[3,4-b]pyridine-7,4′-piperidine]] | 5.25 nM |
| CC(C)(C)OC(=O)N1CCC[C@H]1Cn1cc(C(=O)N2CCC3(CC2)OCc2cccnc23)c2ccc(Cl)cc21 [Compound 7, tert-Butyl (2S)-2-{[6-chloro-3-(1′H,5H-spiro[furo[3,4-b]pyridine-7,4′-piperidin]-1′-ylcarbonyl)-1H-indol-1-yl]methyl}pyrrolidine-1-carboxylate] | 22.9 nM |
| O=C(c1cn(C[C@@H]2CCCN2)c2cc(Cl)ccc12)N1CCC2(CC1)OCc1cccnc12 [Compound 8, 1′-({6-Chloro-1-[(2S)-pyrrolidin-2-ylmethyl]-1H-indol-3-yl}carbonyl)-5H-spiro[furo[3,4-b]pyridine-7,4′-piperidine]dihydrochloride] | 3.31 nM |
| CN1CCC[C@H]1Cn1cc(C(=O)N2CCC3(CC2)OCc2cccnc23)c2ccc(Cl)cc21 [Compound 9, 1′-[(6-Chloro-1-1{[(2S)-1-methylpyrrolidin-2-yl]methyl}-1H-indol-3-yl)carbonyl]-5H-spiro[furo[3,4-b]pyridine-7,4′-piperidine]] | 1 nM |
| O=C(c1c[nH]c2cc(Cl)ccc12)N1CCC2(CC1)OCc1ccncc12 [Compound 10, 1′-[(6-Chloro-1H-indol-3-yl)carbonyl]-1H-spiro[furo[3,4-c]pyridine-3,4′-piperidine]] | 8.71 nM |
| CC(C)(C)OC(=O)N1CCC[C@H]1Cn1cc(C(=O)N2CCC3(CC2)OCc2ccncc23)c2ccc(Cl)cc21 [Compound 11, tert-Butyl (2S)-2-{[6-chloro-3-(1H, 1′H-spiro[furo[3,4-c]pyridine-3,4′-piperidin]-1′-ylcarbonyl)-1H-indol-1-yl]methyl}pyrrolidine-1-carboxylate] | 23.4 nM |
| O=C(c1cn(C[C@@H]2CCCN2)c2cc(Cl)ccc12)N1CCC2(CC1)OCc1ccncc12 [Compound 12, 1′-({6-Chloro-1-[(2S)-pyrrolidin-2-ylmethyl]-1H-indol-3-yl}carbonyl)-1H-spiro[furo[3,4-c]pyridine-3,4′-piperidine]dihydrochloride] | 4.57 nM |
| CN1CCC[C@H]1Cn1cc(C(=O)N2CCC3(CC2)OCc2ccncc23)c2ccc(Cl)cc21 [Compound 13, 1′-[(6-Chloro-1-{[(2S)-1-methylpyrrolidin-2-yl]methyl}-1H-indol-3-yl)carbonyl]-1H-spiro[furo[3,4-c]pyridine-3,4′-piperidine]] | 1.1 nM |
| O=C(c1cn(Cc2cc(F)cc(F)c2)c2cc(Cl)ccc12)N1CCC2(CC1)OCc1cccnc12 [Compound 14, 1′-{[6-Chloro-1-(3,5-difluorobenzyl)-1H-indol-3-yl]carbonyl}-5H-spiro[furo[3,4-b]pyridine-7,4′-piperidine]] | 4.27 nM |

Reference: US8034937B2, “Azaspiro derivatives” (Hoffmann-La Roche Inc., priority 2006, dated 2011)
